Laboratory results from paper PMC2898572 (Journal of neurochemistry, 2009).
Values joined by “and” are separate entries in the source; they are usually repeats but may differ in a detail not shown here. Equal entries are not always repeated.

What was measured:
rat PEPT2 = details: read-out: Ki (PEPT2 inhibitor); LLC-PK1 cells stably transfected with rat PEPT2; ref Terada et al. 2000; cited from earlier work
[1] = tested on: wild-type and Pept2 null mice; test: Hot-plate test; format: in vivo; details: for ED50: icv
[2] = tested on: opioid peptide transport system; details: SK-N-SH cells; ref Thakker et al. 2008; cited from earlier work
PEPT2 = details: rat choroid plexus; concentrations 1,000 times in excess; ref Teuscher et al. 2001; cited from earlier work

| Molecule | Ki (rat PEPT2) [µM] | effect on the MPE of L-KTP ([1]; bestatin 160 nmol icv with 4 nmol L-KTP, Pept2 null mice, p=0.2931) | stimulation of opioid peptide transport system [2] | maximum analgesia ([1]; 100 nmol icv, both genotypes) [% MPE] | duration of response to 100 nmol dose ([1]; 100 nmol icv, both genotypes, 40 min experiment) | ED50 ([1]; Pept2 null mice, response at 5 min, estimate ± standard error) [nmol] | time of maximum analgesia ([1]; after icv injection, both genotypes) [min] | ED50 ([1]; both genotypes (wild-type and Pept2 null)) [nmol] | ED50 ([1]; wild-type mice, response at 5 min, estimate ± standard error) | difference in ED50 between genotypes ([1]; wild-type vs Pept2 null) | effect on the uptake of GlySar (PEPT2) |
| --- | --- | --- | --- | --- | --- | --- | --- | --- | --- | --- | --- |
| CC(C)C[C@H](NC(=O)[C@@H](O)[C@H](N)Cc1ccccc1)C(=O)O [bestatin] | 18 | little effect | – | – | – | – | – | – | – | – | – |
| L-Tyr-D-Arg [D-KTP] | – | – | little stimulation | 100 | fully analgesic throughout the 40 min experiment | 9.1 ± 0.8 | 5 | 9 to 10 | 10.3 nmol and 10.3 ± 1.0 nmol | ~ 10% | no effect |
